Experimental data as given in ChEMBL document CHEMBL5579798, “Discovery of novel oridonin sulfamide derivatives as potent NLRP3 inhibitors by a visible-light photocatalysis-enabled peripheral editing” (Bioorg Med Chem Lett, 2024).

Assay: Cytotoxicity against human THP-1 cells by CCK-8 method
Assay type: toxicity, cell-based

**Q.** For COc1ccc(S(=O)(=O)NCC[C@@H]2C(=O)[C@]34[C@H](O)[C@H]2CC[C@H]3[C@@]23CO[C@]4(O)[C@@H](O)[C@@H]2C(C)(C)CC[C@@H]3O)cc1, which CC50 is on record?
**A.** > 100 µM

**Q.** Which CC50 does the source give for CC1(C)CC[C@H](O)[C@]23CO[C@](O)([C@@H](O)[C@H]12)[C@]12C(=O)[C@@H](CCNS(=O)(=O)c4ccsc4)[C@H](CC[C@@H]31)[C@H]2O here?
**A.** > 100 µM

**Q.** With CC1(C)CC[C@H](O)[C@]23CO[C@](O)([C@@H](O)[C@H]12)[C@]12C(=O)[C@@H](CCNS(=O)(=O)/C=C/c4ccccc4)[C@H](CC[C@@H]31)[C@H]2O as the compound, how does the CC50 read?
**A.** > 100 µM

**Q.** Which CC50 does the source give for CC1(C)CC[C@H](O)[C@]23CO[C@](O)([C@@H](O)[C@H]12)[C@]12C(=O)[C@@H](CCNS(=O)(=O)c4ccc(C(F)(F)F)cc4)[C@H](CC[C@@H]31)[C@H]2O here?
**A.** > 100 µM

**Q.** For CC1(C)CC[C@H](O)[C@]23CO[C@](O)([C@@H](O)[C@H]12)[C@]12C(=O)[C@@H](CCNS(=O)(=O)c4ccc(C#N)cc4)[C@H](CC[C@@H]31)[C@H]2O, which CC50 is on record?
**A.** > 100 µM

**Q.** Which CC50 does the source give for CC(C)(C)OC(=O)NCC[C@@H]1C(=O)[C@]23[C@H](O)[C@H]1CC[C@H]2[C@@]12CO[C@]3(O)[C@@H](O)[C@@H]1C(C)(C)CC[C@@H]2O here?
**A.** > 100 µM

**Q.** For CC1(C)CC[C@H](O)[C@]23CO[C@](O)([C@@H](O)[C@H]12)[C@]12C(=O)[C@@H](CCNS(=O)(=O)c4ccc(F)cc4)[C@H](CC[C@@H]31)[C@H]2O, which CC50 is on record?
**A.** > 100 µM

**Q.** For CC1(C)CC[C@H](O)[C@]23CO[C@](O)([C@@H](O)[C@H]12)[C@]12C(=O)[C@@H](CCNS(=O)(=O)c4ccccc4)[C@H](CC[C@@H]31)[C@H]2O, which CC50 is on record?
**A.** > 100 µM

**Q.** For CC1(C)CC[C@H](O)[C@]23CO[C@](O)([C@@H](O)[C@H]12)[C@]12C(=O)[C@@H](CCNS(=O)(=O)c4cccnc4)[C@H](CC[C@@H]31)[C@H]2O, which CC50 is on record?
**A.** > 100 µM

**Q.** For CC1(C)CC[C@H](O)[C@]23CO[C@](O)([C@@H](O)[C@H]12)[C@]12C(=O)[C@@H](CCN)[C@H](CC[C@@H]31)[C@H]2O, which CC50 is on record?
**A.** > 100 µM

**Q.** Which CC50 does the source give for Cn1ccc(S(=O)(=O)NCC[C@@H]2C(=O)[C@]34[C@H](O)[C@H]2CC[C@H]3[C@@]23CO[C@]4(O)[C@@H](O)[C@@H]2C(C)(C)CC[C@@H]3O)n1 here?
**A.** > 100 µM

**Q.** Which CC50 does the source give for CN(C)c1cccc2c(S(=O)(=O)NCC[C@@H]3C(=O)[C@]45[C@H](O)[C@H]3CC[C@H]4[C@@]34CO[C@]5(O)[C@@H](O)[C@@H]3C(C)(C)CC[C@@H]4O)cccc12 here?
**A.** 96.8 µM

**Q.** Which CC50 does the source give for C=C1C(=O)[C@]23[C@H](O)[C@H]1CC[C@H]2[C@@]12CO[C@]3(O)[C@@H](O)[C@@H]1C(C)(C)CC[C@@H]2O [ORIDONIN] here?
**A.** 19.8 µM
